This assay addresses Integrin alpha-V/beta-3 (Homo sapiens, UniProt P05106+P06756). Nature of the assay: Inhibition of binding to alphaV-beta3 integrin. In kind it is protein-complex assay.

Sequence of Integrin alpha-V/beta-3 (P05106 27-788 limits assumed): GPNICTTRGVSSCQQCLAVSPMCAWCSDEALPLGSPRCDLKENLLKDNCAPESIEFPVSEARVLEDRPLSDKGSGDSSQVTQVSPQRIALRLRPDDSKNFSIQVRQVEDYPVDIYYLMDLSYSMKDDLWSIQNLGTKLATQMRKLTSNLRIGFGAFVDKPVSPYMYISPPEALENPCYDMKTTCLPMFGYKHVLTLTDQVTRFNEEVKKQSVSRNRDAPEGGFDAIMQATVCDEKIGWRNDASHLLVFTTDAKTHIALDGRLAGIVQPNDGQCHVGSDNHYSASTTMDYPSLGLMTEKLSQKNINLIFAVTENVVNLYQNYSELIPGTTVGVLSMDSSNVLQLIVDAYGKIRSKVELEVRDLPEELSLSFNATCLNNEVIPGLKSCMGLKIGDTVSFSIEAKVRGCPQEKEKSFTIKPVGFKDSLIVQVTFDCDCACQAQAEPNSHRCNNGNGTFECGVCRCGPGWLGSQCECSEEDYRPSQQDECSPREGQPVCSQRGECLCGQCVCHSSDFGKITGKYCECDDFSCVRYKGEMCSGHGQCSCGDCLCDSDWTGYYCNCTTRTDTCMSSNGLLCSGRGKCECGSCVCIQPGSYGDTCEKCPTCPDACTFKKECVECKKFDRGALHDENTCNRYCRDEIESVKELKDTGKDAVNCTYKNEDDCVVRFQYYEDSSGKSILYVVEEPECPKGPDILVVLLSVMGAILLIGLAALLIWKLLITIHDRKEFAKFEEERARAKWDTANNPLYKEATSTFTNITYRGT
Sequence of Integrin alpha-V/beta-3 (P06756 31-889 limits assumed): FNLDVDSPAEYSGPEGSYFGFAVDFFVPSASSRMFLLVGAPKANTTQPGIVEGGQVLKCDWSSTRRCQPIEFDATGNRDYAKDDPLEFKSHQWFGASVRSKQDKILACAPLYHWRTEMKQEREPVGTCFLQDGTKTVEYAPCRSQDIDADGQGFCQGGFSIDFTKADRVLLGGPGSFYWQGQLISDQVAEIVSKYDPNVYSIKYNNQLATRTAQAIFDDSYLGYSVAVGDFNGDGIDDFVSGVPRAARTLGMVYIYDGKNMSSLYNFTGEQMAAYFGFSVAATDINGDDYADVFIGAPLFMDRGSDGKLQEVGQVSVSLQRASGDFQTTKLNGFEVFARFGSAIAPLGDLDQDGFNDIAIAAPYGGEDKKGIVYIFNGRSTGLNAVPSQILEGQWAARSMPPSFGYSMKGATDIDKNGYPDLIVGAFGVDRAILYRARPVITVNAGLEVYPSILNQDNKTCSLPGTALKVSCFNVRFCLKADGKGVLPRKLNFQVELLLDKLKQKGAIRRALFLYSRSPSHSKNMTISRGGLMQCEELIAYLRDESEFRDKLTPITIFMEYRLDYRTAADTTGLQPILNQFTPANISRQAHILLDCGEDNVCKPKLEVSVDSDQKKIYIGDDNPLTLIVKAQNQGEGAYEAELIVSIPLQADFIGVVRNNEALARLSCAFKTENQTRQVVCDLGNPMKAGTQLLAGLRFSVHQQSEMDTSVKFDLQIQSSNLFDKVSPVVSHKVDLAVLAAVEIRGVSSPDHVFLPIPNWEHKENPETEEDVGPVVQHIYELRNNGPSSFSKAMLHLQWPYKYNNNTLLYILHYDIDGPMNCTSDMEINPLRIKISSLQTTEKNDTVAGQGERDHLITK
Sequence of Integrin alpha-V/beta-3 (P06756 891-1048 limits assumed): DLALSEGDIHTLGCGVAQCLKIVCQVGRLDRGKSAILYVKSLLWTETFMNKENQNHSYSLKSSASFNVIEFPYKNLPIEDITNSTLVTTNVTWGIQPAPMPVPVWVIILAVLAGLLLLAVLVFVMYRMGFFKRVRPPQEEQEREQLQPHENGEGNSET

In the case of `N=C(N)Nc1cccc(C(=O)NNC(=O)NC(CC(=O)O)c2ccccc2)c1` (stereo unspecified), the IC50 (usually the concentration needed to halve the response being measured) came out at 2.6 nM. Compound `CC(C)C[C@H]1C(=O)N[C@@H](CCCNC(=N)N)C(=O)NCC(=O)N[C@@H](CC(=O)O)C(=O)N[C@@H]2CCN1C2=O` came in with an IC50 of 0.8 nM. Compared with the last compound, the IC50 is about 3.2-fold lower. In the case of `N=C(N)Nc1cccc(C(=O)NNC(=O)N[C@@H](CC(=O)O)C(N)=O)c1`, the 50% inhibitory concentration (IC50) turned out to be 150 nM. The same measure for `CC(C)C[C@H]1NC(=O)[C@H](CCCN=C(N)N)NC(=O)CNC(=O)[C@@H](CC(=O)O)NC(=O)[C@@H](Cc2ccccc2)NC1=O`: 40 nM; for `NC(=O)[C@@H](CC(=O)O)NC(=O)NNC(=O)c1cccc(N=C(N)N)c1`: 7200 nM. The figure for `CC(C)C[C@H]1C(=O)N[C@@H](CCCN=C(N)N)C(=O)NCC(=O)N[C@@H](CC(=O)O)C(=O)N[C@H](Cc2ccccc2)C(=O)N1C` is 0.6 nM.

Values taken from ChEMBL document CHEMBL1145121, “Docking studies on alphavbeta3 integrin ligands: pharmacophore refinement and implications for drug design” (J Med Chem, 2003).
